# Read-outs that look alike come from different tables or passages of the source.
# System: TNFα
# Assay: IRAK4 Monocyte TNFα Cell Based Assay
# Set-up: species or system human
# Conditions: human monocytes, second part of Table 2, compounds 33-343, unit inferred, read-out: EC50 MONO TNF HTRF
# Description: IRAK4 Monocyte TNFα Cell Based Assay Procedure:
# The cell suspension was then plated at a density of 5,000 cells/well onto black 384 well Greiner clear bottom plates. Plates were pre-spotted with test compounds and serially diluted in DMSO where 40 nL/well were delivered using the Echo 550 acoustic liquid dispenser (Labcyte®) for a final DMSO concentration of 0.1%. Plated cells were treated with compound for 1 hour at 37° C. Cells were then stimulated with 50 pg/ml of LPS (Sigma) excluding outside columns of plate used for unstimulated cell control wells. Cells were incubated for an additional 4 hours at 37° C. Cells were then spun out of the media and 5 μl of sample were taken and analyzed for total TNFα content using the TR-FRET Human TNFα detection system (CisBio). This system utilizes two labeled antibodies (cryptate and XL665) that bind to two different epitopes of the TNFα molecule and produce FRET signal proportional to the concentration of TNFα in the sample. Detection antibodies are mixed 50:50 and 5 μL were dispensed into each well. Plates were covered with clear seals and incubated at room temp overnight. […] Percent of control was calculated as follows: % Control=100×(Ratiosample−Ratio0% stimulation)/(Ratio100% Stimulation−Ratio0% Stimulation) where unstimulated cells (0% stimulation) were the negative control and stimulated cells (100% stimulation) were used as the positive control.
Compound,"EC50 (Homo sapiens, Monocyte) [nM]",EC50 [nM]
"CC(C)Nc1cc(-c2ccc3cc(C#N)cnn23)ncc1-c1nnc([C@@H]2CC[C@H]2C(C)(C)O)s1 (racemic) [Example 88, 7-(5-(5-((1,2-trans)-2-(2-hydroxypropan-2-yl)cyclobutyl)-1,3,4-thiadiazol-2-yl)-4-(isopropylamino)pyridin-2-yl)pyrrolo[1,2-b]pyridazine-3-carbonitrile]",27.1,–
"CC(=O)NC1CCC(F)(c2nnc(-c3cnc(-c4ccc5cc(C#N)cnn45)cc3NC3COC3)s2)CC1 (single isomer, unassigned) [Example 195, N-(4-(5-(6-(3-cyanopyrrolo[1,2-b]pyridazin-7-yl)-4-(oxetan-3-ylamino)pyridin-3-yl)-1,3,4-thiadiazol-2-yl)-4-fluorocyclohexy)acetamide]",–,334
"CC(=O)NC1CCC(F)(c2nnc(-c3cnc(-c4ccc5cc(C#N)cnn45)cc3NC3COC3)s2)CC1 (single isomer, unassigned) [Example 196, N-(4-(5-(6-(3-cyanopyrrolo[1,2-b]pyridazin-7-yl)-4-(oxetan-3-ylamino)pyridin-3-yl)-1,3,4-thiadiazol-2-yl)-4-fluorocyclohexy)acetamide]",–,107
"CC1(O)CCC(c2nnc(-c3cnc(-c4ccc5cc(C#N)cnn45)cc3NC3COC3)s2)CC1 (single isomer, unassigned) [Example 206, 7-(5-(5-(4-hydroxy-4-methylcyclohexyl)-1,3,4-thiadiazol-2-yl)-4-(oxetan-3-ylamino)pyridin-2-yl)pyrrolo[1,2-b]pyridazine-3-carbonitrile]",13.9,–
"CC(=O)NC1CCN(c2nnc(-c3cnc(-c4ccc5cc(C#N)cnn45)cc3NC(C)C)s2)C[C@@H]1O (stereo in doubt) [Example 64, N-((3S,4R)-1-(5-(6-(3-cyanopyrrolo[1,2-b]pyridazin-7-yl)-4-(isopropylamino)pyridin-3-yl)-1,3,4-thiadiazol-2-yl)-3-hydroxypiperidin-4-yl)acetamide]",6.9,–
"CC(=O)N1CCN(c2nnc(-c3cnc(-c4ccc5cc(C#N)cnn45)cc3NC(C)C)s2)CC1 [Compound 232, 7-(5-(5-(4-acetylpiperazin-l-yl)-1,3,4-thiadiazol-2-yl)-4-(isopropylamino)pyridin-2-yl)pyrrolo[1,2-b]pyridazine-3-carbonitrile]",–,7.4
"CC(=O)N[C@@H]1[C@@H]2CN(c3nnc(-c4cnc(-c5ccc6cc(C#N)cnn56)cc4NC(C)C)s3)C[C@@H]21 [Compound 239, N-((1R,5S,6r)-3-(5-(6-(3-cyanopyrrolo[1,2-b]pyridazin-7-yl)-4-(isopropylamino)pyridin-3-yl)-1,3,4-thiadiazol-2-yl)-3-azabicyclo[3.1.0]hexan-6-yl)acetamide]",–,4.9
"CC(=O)N[C@H]1[C@@H]2CN(c3nnc(-c4cnc(-c5ccc6cc(C#N)cnn56)cc4NC(C)C)s3)C[C@@H]21 [Compound 240, N-((1R,5S,6s)-3-(5-(6-(3-cyanopyrrolo[1,2-b]pyridazin-7-yl)-4-(isopropylamino)pyridin-3-yl)-1,3,4-thiadiazol-2-yl)-3-azabicyclo[3.1.0]hexan-6-yl)acetamide]",–,8.9
"CC(=O)NC1CCC(c2nnc(-c3cnc(-c4ccc5cc(C#N)cnn45)cc3NC34CCC(O)(CC3)CC4)s2)CC1 (stereo not drawn) [Compound 241, N-((1r,4r)-4-(5-(6-(3-cyanopyrrolo[1,2-b]pyridazin-7-yl)-4-((4-hydroxybicyclo[2.2.2]octan-1-yl)amino)pyridin-3-yl)-1,3,4-thiadiazol-2-yl)cyclohexyl)acetamide]",–,4.8
"CC(=O)N[C@H]1CC[C@H](c2nnc(-c3cnc(-c4ccc5cc(C#N)cnn45)cc3N[C@H]3C[C@@](C)(O)C3)s2)CC1 [Compound 243, N-((1R,4r)-4-(5-(6-(3-cyanopyrrolo[1,2-b]pyridazin-7-yl)-4-(((1s,3S)-3-hydroxy-3-methylcyclobutyl)amino)pyridin-3-yl)-1,3,4-thiadiazol-2-yl)cyclohexyl)acetamide]",–,6.4
"CC(=O)N[C@H]1CC[C@H](c2nnc(-c3cnc(-c4ccc5cc(C#N)cnn45)cc3N[C@H]3CCC[C@@H](O)C3)s2)CC1 [Compound 245, N-((1S,4r)-4-(5-(6-(3-cyanopyrrolo[1,2-b]pyridazin-7-yl)-4-(((1S,3R)-3-hydroxycyclohexyl)amino)pyridin-3-yl)-1,3,4-thiadiazol-2-yl)cyclohexyl)acetamide]",–,3.2
"CC(=O)N[C@H]1CC[C@H](c2nnc(-c3cnc(-c4ccc5cc(C#N)cnn45)cc3NC3CCOCC3)s2)CC1 [Compound 255, N-((1r,4r)-4-(5-(6-(3-cyanopyrrolo[1,2-b]pyridazin-7-yl)-4-((tetrahydro-2H-pyran-4-yl)amino)pyridin-3-yl)-1,3,4-thiadiazol-2-yl)cyclohexyl)acetamide]",–,5.1
"CC(=O)N1C2CC1CN(c1nnc(-c3cnc(-c4ccc5cc(C#N)cnn45)cc3NC(C)C)s1)C2 [Compound 258, 7-(5-(5-(6-acetyl-3,6-diazabicyclo[3.1.1]heptan-3-yl)-1,3,4-thiadiazo1-2-yl)-4-(isopropylamino)pyridin-2-yl)pyrrolo[1,2-b]pyridazine-3-carbonitrile]",–,5.8
"CC(=O)N1CC2CCC(C1)N2c1nnc(-c2cnc(-c3ccc4cc(C#N)cnn34)cc2NC(C)C)s1 [Compound 260, 7-(5-(5-(3-acety1-3,8-diazabicyclo[3.2.1]octan-8-yl)-1,3,4-thiadiazol-2-yl)-4-(isopropylamino)pyridin-2-yl)pyrrolo[1,2-b]pyridazine-3-carbonitrile]",–,15.8
"CC(=O)N1CC2CC(C1)N2c1nnc(-c2cnc(-c3ccc4cc(C#N)cnn34)cc2NC(C)C)s1 [Compound 261, 7-(5-(5-(3-acety1-3,6-diazabicyclo[3.1.1]heptan-6-yl)-1,3,4-thiadiazol-2-yl)-4-(isopropylamino)pyridin-2-yl)pyrrolo[1,2-b]pyridazine-3-carbonitrile]",–,18.3
"CC(C)Nc1cc(-c2ccc3cc(C#N)cnn23)ncc1-c1nnc(N2CCS(=N)(=O)CC2)s1 [Compound 262, 7-(5-(5-(1-imino-1-oxido-116-thiomorpholino)-1,3,4-thiadiazo1-2-yl)-4-(isopropylamino)pyridin-2-yl)pyrrolo[1,2-b]pyridazine-3-carbonitrile]",–,69.9
CC(=O)N1C2CCC1CN(c1nnc(-c3cnc(-c4ccc5cc(C#N)cnn45)cc3NC3(C)COC3)s1)C2 [Compound 264],–,2.7
CC(=O)N1C[C@H]2COC[C@@H](C1)N2c1nnc(-c2cnc(-c3ccc4cc(C#N)cnn34)cc2NC(C)C)s1 [Compound 266],–,3.2
"CC(=O)N[C@H]1CC[C@H](c2nnc(-c3cnc(-c4ccc5cc(C#N)cnn45)cc3NC3(C)CCOCC3)s2)CC1 [Compound 268, N-((1r,4r)-4-(5-(6-(3-cyanopyrrolo[1,2-b]pyridazin-7-yl)-4-((4-methyltetrahydro-2H-pyran-4-yl)amino)pyridin-3-yl)-1,3,4-thiadiazol-2-yl)cyclohexyl)acetamide]",–,14.1
"CC(=O)N1[C@@H]2COC[C@H]1CN(c1nnc(-c3cnc(-c4ccc5cc(C#N)cnn45)cc3NC3CCOCC3)s1)C2 [Compound 269, 7-(5-(5-((1R,5S)-9-acety1-3-oxa-7,9-diazabicyclo[3.3.1]nonan-7-yl)-1,3,4-thiadiazol-2-yl)-4-((tetrahydro-2H-pyran-4-yl)amino)pyridin-2-yl)pyrrolo[1,2-b]pyridazine-3-carbonitrile]",–,5.8
"CC(=O)N[C@@H]1[C@@H]2CC[C@H]1CN(c1nnc(-c3cnc(-c4ccc5cc(C#N)cnn45)cc3NC3(C)CCOCC3)s1)C2 [Compound 272, N-((1R,5S,8s)-3-(5-(6-(3-cyanopyrrolo[1,2-b]pyridazin-7-yl)-4-((4-methyltetrahydro-2H-pyran-4-yl)amino)pyridin-3-yl)-1,3,4-thiadiazol-2-yl)-3-azabicyclo[3.2.1]octan-8-yl)acetamide]",–,4.1
"CC(C)Nc1cc(-c2ccc3cc(C#N)cnn23)ncc1-c1nnc(N2C3CC2CN(C(=O)CN=S(C)(C)=O)C3)s1 [Compound 276, 7-(5-(5-(3-(2-((dimethyl(oxo)-16-sulfanylidene)amino)acetyl)-3,6-diazabicyclo[3.1.1]heptan-6-yl)-1,3,4-thiadiazol-2-yl)-4-(isopropylamino)pyridin-2-yl)pyrrolo[1,2-b]pyridazine-3-carbonitrile]",–,7.8
"CC(=O)N[C@H]1C[C@H](c2nnc(-c3cnc(-c4ccc5cc(C#N)cnn45)cc3NC(C)C)s2)C1 [Compound 278, N-((1r,3r)-3-(5-(6-(3-cyanopyrrolo[1,2-b]pyridazin-7-yl)-4-(isopropylamino)pyridin-3-yl)-1,3,4-thiadiazol-2-yl)cyclobutyl)acetamide]",–,10000
"CC(=O)N[C@H]1C[C@@H](c2nnc(-c3cnc(-c4ccc5cc(C#N)cnn45)cc3NC(C)C)s2)C1 [Compound 279, N-((1s,3s)-3-(5-(6-(3-cyanopyrrolo[1,2-b]pyridazin-7-yl)-4-(isopropylamino)pyridin-3-yl)-1,3,4-thiadiazol-2-yl)cyclobutyl)acetamide]",–,15.9
CC(C)Nc1cc(-c2ccc3cc(C#N)cnn23)ncc1-c1nnc(CC#N)s1 [Compound 321],–,53.5
CC(C)Nc1cc(-c2ccc3cc(C#N)cnn23)ncc1-c1nnc(C2CCOC2)s1 (stereo not drawn) [Compound 322],–,419
CC(=O)N[C@H]1CN(c2nnc(-c3cnc(-c4ccc5cc(C#N)cnn45)cc3NC(C)C)s2)CC12CC2 [Compound 323],–,3.7
